In ChEMBL document CHEMBL4330071 (Eur J Med Chem, 2019):

Target: Serine/threonine-protein kinase Chk1 (Homo sapiens) (UniProt O14757)
Experiment: Inhibition of human CHK1 assessed as residual activity at 10 uM using KKKVSRSGLYRSPSMPENLNRPR as substrate preincubated for 20 mins followed by [gamma-33P]-ATP addition and measured after 120 mins by Hotspot assay relative to control

Sequence of Serine/threonine-protein kinase Chk1 (Homo sapiens) (O14757 whole entry): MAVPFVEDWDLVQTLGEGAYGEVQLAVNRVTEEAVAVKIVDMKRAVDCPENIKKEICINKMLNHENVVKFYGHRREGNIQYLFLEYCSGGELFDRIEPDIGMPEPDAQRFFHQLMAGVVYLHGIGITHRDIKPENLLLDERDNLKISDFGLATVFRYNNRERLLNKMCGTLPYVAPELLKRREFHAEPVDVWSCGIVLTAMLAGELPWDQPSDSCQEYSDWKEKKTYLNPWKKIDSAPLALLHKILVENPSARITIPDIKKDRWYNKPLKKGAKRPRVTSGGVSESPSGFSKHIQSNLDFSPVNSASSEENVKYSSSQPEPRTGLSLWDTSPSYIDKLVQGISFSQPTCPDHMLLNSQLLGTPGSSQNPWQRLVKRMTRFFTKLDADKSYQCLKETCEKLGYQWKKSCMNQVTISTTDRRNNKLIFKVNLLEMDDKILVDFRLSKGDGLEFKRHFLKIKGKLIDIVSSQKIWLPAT

Structure (SMILES): CN1CCC(Nc2ccc(C(=O)Nc3cc(-c4cc(C#N)cs4)n[nH]3)cc2)CC1
- Activity: 11.8%
